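Following 48 hours of exposure in 96-well plates, responses at five concentrations were used to interpolate endpoints linearly. Abbreviation: GI50, concentration required for 50% inhibition of growth.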 Active and inactive are the calls of the source. Cut-off read from the data, not from the text of the source: active = GI50 up to about 1.1 µM and inactive = higher.
Experiments:
Experiment in all cases: NCI-60 cell line screen, 48 h
SF-295 = system: SF-295
U-251 = system: U-251
TK-10 = system: TK-10
PC-3 = system: PC-3
SK-MEL-2 = system: SK-MEL-2
UACC-62 = system: UACC-62
HCT-116 = system: HCT-116
UO-31 = system: UO-31
OVCAR-8 = system: OVCAR-8
CCRF-CEM = system: CCRF-CEM
HOP-62 = system: HOP-62
Hs-578T = system: Hs-578T
MOLT-4 = system: MOLT-4
SN12C = system: SN12C
HT-29 = system: HT-29
SK-OV-3 = system: SK-OV-3
HOP-92 = system: HOP-92
M14 = system: M14
NCI-H460 = system: NCI-H460
SK-MEL-28 = system: SK-MEL-28
HCT-15 = system: HCT-15
Malme-3M = system: Malme-3M
SW-620 = system: SW-620
MDA-MB-231 = system: MDA-MB-231
K562 = system: K562
NCI-H522 = system: NCI-H522
SNB-75 = system: SNB-75
MCF7 = system: MCF7
OVCAR-3 = system: OVCAR-3
A549 = system: A549
SNB-19 = system: SNB-19
NCI-H226 = system: NCI-H226
ACHN = system: ACHN
SR = system: SR
UACC-257 = system: UACC-257
T47D = system: T47D
OVCAR-4 = system: OVCAR-4
786-0 = system: 786-0
BT-549 = system: BT-549
IGROV-1 = system: IGROV-1
OVCAR-5 = system: OVCAR-5
COLO 205 = system: COLO 205
KM12 = system: KM12
MDA-MB-435 = system: MDA-MB-435
NCI/ADR-RES = system: NCI/ADR-RES
A498 = system: A498
SF-268 = system: SF-268
SK-MEL-5 = system: SK-MEL-5
DU-145 = system: DU-145
HCC 2998 = system: HCC 2998
EKVX = system: EKVX
RXF 393 = system: RXF 393
NCI-H23 = system: NCI-H23
SF-539 = system: SF-539
MDA-N = system: MDA-N
RPMI-8226 = system: RPMI-8226
CAKI-1 = system: CAKI-1
LOX IMVI = system: LOX IMVI
HL-60 = system: HL-60

With `CN(C)c1ccc(C(=N/N=C2\C(=O)Nc3ccccc32)c2ccc(N(C)C)cc2)cc1` the GI50 (SF-295) was 308 nM (active), the GI50 (U-251) was 490 nM (active) and the GI50 (TK-10) was 1730 nM (inactive). The GI50 (PC-3) was 1580 nM (inactive), the GI50 (SK-MEL-2) was 248 nM (active) and the GI50 (UACC-62) was 370 nM (active). The GI50 (HCT-116) was 330 nM (active), the GI50 (UO-31) was 2010 nM (inactive) and the GI50 (OVCAR-8) was 1000 nM (active). The GI50 (CCRF-CEM) was 935 nM (active), the GI50 (HOP-62) was 933 nM (active) and the GI50 (Hs-578T) was 836 nM (active). For the same compound, the GI50 (MOLT-4) was 422 nM (active), the GI50 (SN12C) was 1670 nM (inactive) and the GI50 (HT-29) was 348 nM (active). For the same compound, the GI50 (SK-OV-3) was 1370 nM (inactive), the GI50 (HOP-92) was 12800 nM (inactive) and the GI50 (M14) was 348 nM (active). For the same compound, the GI50 (NCI-H460) was 405 nM (active), the GI50 (SK-MEL-28) was 3170 nM (inactive) and the GI50 (HCT-15) was 188 nM. For the same compound, the GI50 (Malme-3M) was 2170 nM (inactive), the GI50 (SW-620) was 247 nM (active) and the GI50 (MDA-MB-231) was 767 nM (active). For the same compound, the GI50 (K562) was 196 nM (active), the GI50 (NCI-H522) was 167 nM (active) and the GI50 (SNB-75) was 214 nM (active). The GI50 (MCF7) was 266 nM (active), the GI50 (OVCAR-3) was 513 nM (active) and the GI50 (A549) was 625 nM (active). For the same compound, the GI50 (SNB-19) was 1220 nM (inactive), the GI50 (NCI-H226) was 6890 nM (inactive) and the GI50 (ACHN) was 1040 nM (active). The GI50 (SR) was 26.2 nM (active), the GI50 (UACC-257) was 24500 nM (inactive) and the GI50 (T47D) was 771 nM (active). For the same compound, the GI50 (OVCAR-4) was 1940 nM (inactive), the GI50 (786-0) was 859 nM (active) and the GI50 (BT-549) was 938 nM (active). The GI50 (IGROV-1) was 303 nM (active), the GI50 (OVCAR-5) was 3720 nM (inactive) and the GI50 (COLO 205) was 358 nM (active). The GI50 (KM12) was 278 nM (active), the GI50 (MDA-MB-435) was 21.4 nM (active) and the GI50 (NCI/ADR-RES) was 218 nM (active). For the same compound, the GI50 (A498) was 1960 nM (inactive), the GI50 (SF-268) was 942 nM (active) and the GI50 (SK-MEL-5) was 417 nM (active). For the same compound, the GI50 (DU-145) was 1910 nM (inactive), the GI50 (HCC 2998) was 643 nM (active) and the GI50 (EKVX) was 5150 nM (inactive). For the same compound, the GI50 (RXF 393) was 172 nM (active), the GI50 (NCI-H23) was 1730 nM (inactive) and the GI50 (SF-539) was 313 nM (active). The GI50 (MDA-N) was 61.4 nM (active), the GI50 (RPMI-8226) was 220 nM (active) and the GI50 (CAKI-1) was 390 nM (active). The GI50 (LOX IMVI) was 748 nM (active) and the GI50 (HL-60) was 363 nM (active).

— ChEMBL document CHEMBL1201862, “PubChem BioAssay data set” (2004)
